Data set [1] concerns Hela cells. Kind of data set: Test for cell activity (Hela cells, interferon γ, kynurenine read at 480 nm). It is filed as cell-based. As to conditions: human interferon γ 50 ng/mL, 48 h. The protocol: Hela cells (100 μL) were inoculated on a 96-well plate at an inoculation amount of 5×10^3 per well and grown overnight. The next day, after the compound was diluted, 1 μL was added to a 96-well plate and then 100 μL of medium containing human interferon y (final concentration of 50 ng/mL) was added to the 96-well plate to allow the final volume to be 200 μL. 48 h after incubating, 140 μL of supernatant in each well was transferred to a new 96-well plate. 10 μL of 6.1 N trichloroacetic acid was added to each well and mixed and incubated at 50° C. for 30 min, IDO catalyzed N-formyl canine urea to become canine urea. The reaction mixture was centrifuged at 2500 rpm for 10 minutes to remove the precipitate. 100 μL of supernatant in each well was transferred to a new 96-well plate and mixed with 100 μL of 2% dimethylaminobenzaldehyde acetic acid solution. After the canine urea was separated, the value was measured at 480 nm using a SPECTRAmax i3 reader.

Data set [2] is described as follows: Pharmacokinetics of compound 6 in ICR mice after oral compound 13 (prodrug). It is filed as in vivo. The note with it: for AUMC0-inf / AUMC0-t / Kel / MRTPO: compound 6 in ICR mice after oral compound 13 30 mg/kg. The protocol:
Compound 13 was orally administered to ICR mice. Blood samples were collected at different time points. LC-MS/MS was used to determine the concentration of compound 6 in the plasma of mice after administration of the test substance, and the relevant pharmacokinetic parameters were calculated, the pharmacological properties of compound 6 in mice was investigated.
Experimental design: 3 ICR mice, provided by Suzhou Zhaoyan New Drug Research and Development Co., Ltd.; the experiment was carried out according to Table 6.
Each animal was anesthetized with isoflurane and thereafter about 25 μL of blood was collected through the eyepit, anticoagulated with EDTAK2, the collecting time points were: before administration of the test substance (0 hr) and 15 min, 30 min, 1 h, 2 h, 4 h, 6 h, 8 h and 24 h after administration of the test substance. Blood samples were collected and placed on ice and the plasma was centrifuged and separated within 1 hour (centrifugal conditions: 5000 rpm, 10 minutes, 4° C.). The collected plasma was stored at −20° C. before analysis.
Data acquisition and control system software was the Analyst1.5.1 software (Applied Biosystem). The sample peak integral method was automatic integration; The ratio of the peak area of the sample and the peak area of the internal standard was taken as the index and the concentration of the sample was regressed. Regression method: linear regression, the weight coefficient was 1/X^2. Pharmacokinetic parameters were analyzed with a non-compartmental model using WinNonlin Professional v6.3 (Pharsight, USA). Cmax is the measured maximum blood concentration, and the area under the blood concentration-time curve AUC(0→t) was calculated from the trapezoidal method, and Tmax is the peak blood concentration time after administration. The experimental data is expressed as “mean±SD, n≥3” or “mean” (mean, n=2).

Where “and” joins values, the source holds several entries; their conditions need not be identical. Equal values may be shown once.

Compound `CS(=O)(CCNc1nonc1/C(=N/O)Nc1ccc(F)c(Br)c1)=NC#N` (racemic) [compound 6, (±)(Z)—N-(3-bromo-4-fluorophenyl)-N′-hydroxy-4-((2-(thio-methylsulfoxidecyanoimine)ethyl)amino)-1,2,5-oxadiazole-3-carboxamidine] had an IC50 in data set [1] of 1.8 nM. In addition, the “pharmacokinetic parameters (overall judgement)” value in data set [2] (ICR mice, after oral compound 13) is given as “excellent pharmacokinetic parameters”. For the same compound, in data set [2] (individual mouse), the AUMC0-inf was 46297 hr*hr*ng/mL and 13854 hr*hr*ng/mL and 21447 hr*hr*ng/mL; the AUMC0-t is 19793 hr*hr*ng/mL and 12189 hr*hr*ng/mL and 16309 hr*hr*ng/mL; the Kel is 0.0695 h⁻¹ and 0.156 h⁻¹ and 0.123 h⁻¹; the MRTPO is 15.0 h and 6.25 h and 7.99 h. For the same compound, in data set [2] (mean), the AUMC0-inf was 27199 hr*hr*ng/mL; the AUMC0-t amounted to 16097 hr*hr*ng/mL; the Kel turned out to be 0.116 h⁻¹; the MRTPO is 9.76 ± 4.64 h and 9.76 h.

Source of the values: patent US11053207B2, “Indoleamine-2,3-dioxygenase inhibitor and preparation method therefor” (SHANGHAI INSTITUTE OF ORGANIC CHEMISTRY, CHINESE ACADEMY OF …, priority 2014, dated 2021).
